Test results as given in US10487068B2, “Pyridazine derivatives as RORc modulators” (Genentech, Inc., priority 2015, dated 2019).

Biological target: T1, RORc ligand binding domain (Homo sapiens, UniProt P51449)
T1 sequence (P51449 269-508 limits assumed): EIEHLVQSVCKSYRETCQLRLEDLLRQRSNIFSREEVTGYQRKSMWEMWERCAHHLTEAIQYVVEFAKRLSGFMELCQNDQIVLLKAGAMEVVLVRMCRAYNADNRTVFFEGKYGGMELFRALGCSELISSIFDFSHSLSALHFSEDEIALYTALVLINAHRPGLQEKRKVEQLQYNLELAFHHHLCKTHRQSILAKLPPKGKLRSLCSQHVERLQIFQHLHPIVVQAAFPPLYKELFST
Assay: In Vitro RORc Ligand Binding Assay
Settings: RORc IC50, radioligand 25-[3H]hydroxycholesterol 6 nM; 0.6 ug/mL RORc receptor; 3 h at 25° C.

SMILES	IC50 [nM]
CC(C)(C)OC(=O)N1CCC(c2nccc([C@@]34CC[C@@H](c5cc(-c6c(F)cccc6F)nnc53)C4(C)C)n2)CC1 [Example 345]	13
CC(C)(O)c1coc(-c2nccc([C@@]34CC[C@@H](c5cc(-c6c(F)cccc6F)nnc53)C4(C)C)n2)n1 [Example 350]	16.4
Cc1nc(C)n(-c2nccc([C@@]34CC[C@@H](c5cc(-c6c(F)cccc6F)nnc53)C4(C)C)n2)n1 [Example 352]	15.2
CC(C)(O)Cc1n[nH]c(-c2cncc([C@@]34CC[C@@H](c5cc(-c6c(F)cccc6F)nnc53)C4(C)C)n2)n1 [Example 354, 1-(5-(6-((5R,8S)-3-(2,6-difluorophenyl)-9,9-dimethyl-5,6,7,8-tetrahydro-5,8-methanocinnolin-8-yl)pyrazin-2-yl)-1H-1,2,4-triazol-3-yl)-2-methylpropan-2-ol]	20.7
CC1(C)[C@H]2CC[C@]1(c1ccnc(C3CCN(C(=O)CO)CC3)n1)c1nnc(-c3c(F)cccc3F)cc12 [Example 355]	12.4
CC(C)(C#N)c1n[nH]c(-c2cccc([C@@]34CC[C@@H](c5cc(-c6c(F)cccc6F)nnc53)C4(C)C)n2)n1 [Example 357, 2-(5-(6-((5R,8S)-3-(2,6-difluorophenyl)-9,9-dimethyl-5,6,7,8-tetrahydro-5,8-methanocinnolin-8-yl)pyridin-2-yl)-1H-1,2,4-triazol-3-yl)-2-methylpropanenitrile]	13
Cc1nc(CO)nn1-c1nccc([C@@]23CC[C@@H](c4cc(-c5c(F)cccc5F)nnc42)C3(C)C)n1 [Example 358]	60.4
CC1(C)[C@H]2CC[C@]1(c1ccnc(-n3cnc(=O)[nH]3)n1)c1nnc(-c3c(F)cccc3F)cc12 [Example 359]	17.3
Cc1nc(=O)[nH]n1-c1nccc([C@@]23CC[C@@H](c4cc(-c5c(F)cccc5F)nnc42)C3(C)C)n1 [Example 360]	127
CC(C)(C)OC(=O)N1CCC[C@@H](c2nccc([C@@]34CC[C@@H](c5cc(-c6c(F)cccc6F)nnc53)C4(C)C)n2)C1 [Example 361]	20.1
CC(C)(C)OC(=O)N1CCCC(c2nccc([C@@]34CC[C@@H](c5cc(-c6c(F)cccc6F)nnc53)C4(C)C)n2)C1 (stereo partly drawn) [Example 362]	15.8
Cc1ncnn1-c1ncc(F)c([C@@]23CC[C@@H](c4cc(-c5c(F)cccc5F)nnc42)C3(C)C)n1 [Example 363]	33.5
CC1(C)[C@H]2CC[C@]1(c1ccnc(C3CCCN(C(=O)CO)C3)n1)c1nnc(-c3c(F)cccc3F)cc12 (stereo partly drawn) [Example 364]	50.4
CC1(C)[C@H]2CC[C@]1(c1cncc(C(=O)N[C@@H]3COC(=O)C3)n1)c1nnc(-c3c(F)cccc3F)cc12 [Example 376, 6-((5R,8S)-3-(2,6-difluorophenyl)-9,9-dimethyl-5,6,7,8-tetrahydro-5,8-methanocinnolin-8-yl)-N-((S)-5-oxotetrahydrofuran-3-yl)pyrazine-2-carboxamide]	27.2

Now those with a lower IC50, led by results:

IC50 [nM]	SMILES
1.6	C=C(C)c1cnc(-c2cncc([C@@]34CC[C@@H](c5cc(-c6c(F)cccc6F)nnc53)C4(C)C)n2)o1 [Example 343, 2-(6-((5R,8S)-3-(2,6-difluorophenyl)-9,9-dimethyl-5,6,7,8-tetrahydro-5,8-methanocinnolin-8-yl)pyrazin-2-yl)-5-(prop-1-en-2-yl)oxazole]
1.7	CC(C)(C)OC(=O)N1CC=C(c2nccc([C@@]34CC[C@@H](c5cc(-c6c(F)cccc6F)nnc53)C4(C)C)n2)CC1 [Example 344]
3.7	CC(C)OC(=O)c1coc(-c2cncc([C@@]34CC[C@@H](c5cc(-c6c(F)cccc6F)nnc53)C4(C)C)n2)n1 [Example 346, isopropyl 2-(6-((5R,8S)-3-(2,6-difluorophenyl)-9,9-dimethyl-5,6,7,8-tetrahydro-5,8-methanocinnolin-8-yl)pyrazin-2-yl)oxazole-4-carboxylate]
6.8	CC(C)(O)c1ncc(-c2cncc([C@@]34CC[C@@H](c5cc(-c6c(F)cccc6F)nnc53)C4(C)C)n2)o1 [Example 347, 2-(5-(6-((5R,8S)-3-(2,6-difluorophenyl)-9,9-dimethyl-5,6,7,8-tetrahydro-5,8-methanocinnolin-8-yl)pyrazin-2-yl)oxazol-2-yl)propan-2-ol]
10.6	C[C@@H](O)c1ccn(-c2nccc([C@@]34CC[C@@H](c5cc(-c6c(F)cccc6F)nnc53)C4(C)C)n2)n1 [Example 348]
6.3	CC1(C)[C@H]2CC[C@]1(c1ccnc(C3CCN(S(C)(=O)=O)CC3)n1)c1nnc(-c3c(F)cccc3F)cc12 [Example 349]
10.5	CC(=O)N1CCC(c2nccc([C@@]34CC[C@@H](c5cc(-c6c(F)cccc6F)nnc53)C4(C)C)n2)CC1 [Example 351]
10.8	C[C@H](O)c1ccn(-c2nccc([C@@]34CC[C@@H](c5cc(-c6c(F)cccc6F)nnc53)C4(C)C)n2)n1 [Example 353]
2.4	CC1(C)[C@H]2CC[C@]1(c1ccnc(C3CCOCC3)n1)c1nnc(-c3c(F)cccc3F)cc12 [Example 356]
3.5	CC1(C)[C@H]2CC[C@]1(c1cncc(-c3nc([C@H](O)C(F)(F)F)co3)n1)c1nnc(-c3c(F)cccc3F)cc12 [Example 366, (S)-1-(2-(6-((5R,8S)-3-(2,6-difluorophenyl)-9,9-dimethyl-5,6,7,8-tetrahydro-5,8-methanocinnolin-8-yl)pyrazin-2-yl)oxazol-4-yl)-2,2,2-trifluoroethanol]
3.1	Cc1ccn(-c2nccc([C@@]34CC[C@@H](c5cc(-c6c(F)cccc6F)nnc53)C4(C)C)n2)n1 [Example 367]
5.4	CC1(C)[C@H]2CC[C@]1(c1ccnc(-n3cnc(CO)n3)n1)c1nnc(-c3c(F)cccc3F)cc12 [Example 368]
3.6	CC1(C)[C@H]2CC[C@]1(c1cncc(-c3nc(CS(C)(=O)=O)co3)n1)c1nnc(-c3c(F)cccc3F)cc12 [Example 369, 2-(6-((5R,8S)-3-(2,6-difluorophenyl)-9,9-dimethyl-5,6,7,8-tetrahydro-5,8-methanocinnolin-8-yl)pyrazin-2-yl)-4-((methylsulfonyl)methyl)oxazole]
4.4	CC(C)(O)c1ccc(-c2nccc([C@@]34CC[C@@H](c5cc(-c6c(F)cccc6F)nnc53)C4(C)C)n2)cn1 [Example 370]
3.3	CC(C)(O)c1coc(-c2cncc([C@@]34CC[C@@H](c5cc(-c6c(F)cccc6Cl)nnc53)C4(C)C)n2)n1 [Example 371, 2-(2-(6-((5R,8S)-3-(2-chloro-6-fluorophenyl)-9,9-dimethyl-5,6,7,8-tetrahydro-5,8-methanocinnolin-8-yl)pyrazin-2-yl)oxazol-4-yl)propan-2-ol]
2.6	CC(C)(O)c1cc(-c2nccc([C@@]34CC[C@@H](c5cc(-c6c(F)cccc6F)nnc53)C4(C)C)n2)ccn1 [Example 372]
4	CC1(C)[C@H]2CC[C@]1(c1ccnc(-c3ccc(C(N)=O)nc3)n1)c1nnc(-c3c(F)cccc3F)cc12 [Example 373]
5.5	CC1(C)[C@H]2CC[C@]1(c1ccnc(-c3ccc(CO)nc3)n1)c1nnc(-c3c(F)cccc3F)cc12 [Example 374]
10.4	Cc1ncn(-c2cncc([C@]34CC[C@H](c5cc(-c6c(F)cccc6F)nnc53)C4(C)C)n2)n1 [Example 375]
